Patent publication US20240383923A1, “HETEROARYL DERIVATIVE AND USE THEREOF” (VORONOI INC., priority 2022, published 2024)
pIC50: −log10 of the molar value. Read-outs that look alike come from different tables or passages of the source.

Key:
HER2 enzyme = molecular target: T1, HER2 enzyme (Homo sapiens, UniProt P04626); assay: Biochemical kinase assay for HER2 (Reaction Biology Corp.); conditions: ATP 10 μM, 3-fold dilution from 10 μM
T1 construct: purchased Reaction Biology Corp. (San Diego, USA); outsourced assay service
T1 sequence (P04626 23-1255): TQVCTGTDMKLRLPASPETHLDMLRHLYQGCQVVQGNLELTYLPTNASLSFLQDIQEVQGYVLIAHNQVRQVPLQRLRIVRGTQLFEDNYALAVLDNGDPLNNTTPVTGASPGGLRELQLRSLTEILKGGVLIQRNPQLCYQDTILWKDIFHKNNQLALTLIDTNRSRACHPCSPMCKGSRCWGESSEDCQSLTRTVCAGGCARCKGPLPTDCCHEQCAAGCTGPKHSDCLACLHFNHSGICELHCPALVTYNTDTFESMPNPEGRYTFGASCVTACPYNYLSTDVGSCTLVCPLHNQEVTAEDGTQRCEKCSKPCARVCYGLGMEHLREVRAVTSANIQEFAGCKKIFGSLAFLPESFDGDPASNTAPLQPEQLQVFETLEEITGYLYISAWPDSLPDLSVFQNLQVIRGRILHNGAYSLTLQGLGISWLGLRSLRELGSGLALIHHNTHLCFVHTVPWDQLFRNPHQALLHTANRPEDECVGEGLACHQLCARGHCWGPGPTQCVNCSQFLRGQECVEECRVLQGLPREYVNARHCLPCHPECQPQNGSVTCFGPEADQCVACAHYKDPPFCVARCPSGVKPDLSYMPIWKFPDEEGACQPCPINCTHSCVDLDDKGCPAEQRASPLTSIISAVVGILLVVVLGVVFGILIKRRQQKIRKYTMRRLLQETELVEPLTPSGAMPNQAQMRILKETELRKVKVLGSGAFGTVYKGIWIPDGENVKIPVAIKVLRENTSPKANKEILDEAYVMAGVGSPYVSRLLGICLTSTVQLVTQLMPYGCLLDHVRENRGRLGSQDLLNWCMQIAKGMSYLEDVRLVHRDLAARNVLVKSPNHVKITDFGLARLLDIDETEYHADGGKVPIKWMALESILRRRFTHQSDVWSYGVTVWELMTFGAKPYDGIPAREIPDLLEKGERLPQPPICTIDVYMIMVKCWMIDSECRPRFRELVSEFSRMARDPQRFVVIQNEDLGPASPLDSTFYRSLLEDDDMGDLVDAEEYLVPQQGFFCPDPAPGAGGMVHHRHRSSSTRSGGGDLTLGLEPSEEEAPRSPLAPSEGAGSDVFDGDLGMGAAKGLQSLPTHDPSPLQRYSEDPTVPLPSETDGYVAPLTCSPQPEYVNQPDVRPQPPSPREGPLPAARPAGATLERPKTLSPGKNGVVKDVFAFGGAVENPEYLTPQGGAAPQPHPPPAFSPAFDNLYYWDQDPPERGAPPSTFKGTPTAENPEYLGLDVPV
Procedure: A biochemical kinase assay for HER2 was conducted through Reaction Biology Corp. (San Diego, USA).

BT-474 cancer cells = assay: Inhibition of BT-474 cell proliferation (CellTiter-Glo); type: cell-based; conditions: Homo sapiens, BT-474 cells, 120 hours
Outline: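 BT-474 cells in RPMI-1640 with 20% FBS, seeded 48 h before dosing with 11 three-fold dilutions (final 0.2 nM to 10 μM). Viability read by CellTiter-Glo luminescence 120 h after treatment, triplicate tests. GI50 derived from growth rate (%) versus control.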

N-87 cancer cells = assay: Inhibition of N-87 cell proliferation (CellTiter-Glo); type: cell-based; conditions: N-87 cells, 72 hours
Procedure: N-87 cancer cells were cultured by using RPMI-1640 medium with 10% FBS. The N-87 cancer cells were seeded to a white clear bottom 96 well plate (Corning) at 5,000 cells per well 24 hours before the […] cancer cells were treated with Example Compounds. Example Compounds were diluted in dimethylsulfoxide (5-fold diluted, total 11 concentrations) and 0.5 μL each was injected so that the final concentration was […]. For the measurement of living cells, the cells were stored at room temperature for 10 minutes using the CellTiter-Glo cell viability reagent (Promega) after 72 hours after the treatment of Example Compounds, and then the luminescence intensity was measured using the reader (SynergyNeo, Biotek).
The result value was calculated as a cell growth rate (%) compared to a control group. Graphs were plotted and GI50 values were calculated using the GraphPad Prism version 8.0 program, and the results are shown in Table 18 below.

HER2 mutant cancers = conditions: cited from earlier work; for objective response rate (ORR): SUMMIT clinical trial; for response of patients with HER2 mutation: phase 1 and 2 clinical trials
Ba/F3 HER2 WT cells = assay: Inhibition of transduced Ba/F3 cell proliferation, HER2 WT; type: cell-based; conditions: Mus musculus, BaF3, 72 hours, CellTiter-Glo
Procedure: (§1) Transduced Ba/F3 cells were cultured by adding 1 μg/mL of puromycin (Invitrogen) to a medium (RPMI-1640) containing 10% fetal bovine serum (FBS). 3,000 Ba/F3 HER2 WT cells were seeded to a white clear bottom 96 well plate (Corning) 24 hours before the Ba/F3 HER2 WT cells were treated with Example compounds. For Ba/F3 HER2 L755S, Ba/F3 HER2 L755P, Ba/F3 HER2 T862A, and Ba/F3 HER2 L869R/T798I cells, 5,000 cells each were seeded to a white clear bottom 96 well plate (Corning) 24 hours before the cells were treated with the compounds. Example Compounds were diluted in dimethylsulfoxide (3-fold diluted, total 11 concentrations) and 0.5 μL each was injected so that the final concentration was 0.2 nM to 10 μM. For the measurement of living cells, the cells were stored at room temperature for 10 minutes using the CellTiter-Glo cell viability reagent (Promega) after 72 hours after the treatment of Example Compounds, and then the luminescence intensity was measured using the reader (SynergyNeo, Biotek). Each test was repeated twice.
(§2) The result value was calculated as a cell growth rate (%) compared to a control group, and the GI50 values were calculated using the software (GraphPad Prism version 8.0), and the results are shown in Table 19 below.

Ba/F3 HER2 L755S cells = assay: Inhibition of transduced Ba/F3 cell proliferation, HER2 L755S; type: cell-based; conditions: Mus musculus, BaF3, 72 hours, CellTiter-Glo
Procedure: as §1, §2

Ba/F3 HER2 L755P cells = assay: Inhibition of transduced Ba/F3 cell proliferation, HER2 L755P; type: cell-based; conditions: Mus musculus, BaF3, 72 hours, CellTiter-Glo
Procedure: as §1, §2

Ba/F3 HER2 T862A cells = assay: Inhibition of transduced Ba/F3 cell proliferation, HER2 T862A; type: cell-based; conditions: Mus musculus, BaF3, 72 hours, CellTiter-Glo
Procedure: as §1, §2

[1] = tested on: Ba/F3 HER2 L869R/T798I cells; assay: Inhibition of transduced Ba/F3 cell proliferation, HER2 L869R/T798I; type: cell-based; conditions: Mus musculus, BaF3, 72 hours, CellTiter-Glo
Procedure: as §1, §2

Compound `COc1cc2ncnc(Nc3cc(Cl)c(Oc4cccc(F)c4)cc3OC)c2cc1NC(=O)/C=C/[C@H]1CCCN1C` [Example 30, (R,E)-N-(4-((5-chloro-4-(3-fluorophenoxy)-2-methoxyphenyl)amino)-7-methoxyquinazolin-6-yl)-3-(1-methylpyrrolidin-2-yl)acrylamide] has a pIC50 (HER2 enzyme) of at least 7.30, a GI50 (BT-474 cancer cells) of at most 50 nM and a GI50 (N-87 cancer cells) of at most 50 nM.
`COc1cc2ncnc(Nc3cc(C)c(Oc4ccn5ncnc5c4)cc3OC)c2cc1NC(=O)/C=C/[C@H]1CCCN1C` [Example 29, (R,E)-N-(4-((4-([1,2,4]triazolo[1,5-a]pyridin-7-yloxy)-2-methoxy-5-methylphenyl)amino)-7-methoxyquinazolin-6-yl)-3-(1-methylpyrrolidin-2-yl)acrylamide] gave a pIC50 (HER2 enzyme) of at least 7.30, a GI50 (BT-474 cancer cells) of at most 50 nM and a GI50 (N-87 cancer cells) of at most 50 nM.
With `COc1cc2ncnc(Nc3cc(C(F)(F)F)c(Oc4ccn5ncnc5c4)cc3OC)c2cc1NC(=O)/C(F)=C/[C@H]1CCCN1C` [Example 54, (R,Z)—N-(4-((4-([1,2,4]triazolo[1,5-a]pyridin-7-yloxy)-2-methoxy-5-(trifluoromethyl)phenyl)amino)-7-methoxyquinazolin-6-yl)-2-fluoro-3-(1-methylpyrrolidin-2-yl)acrylamide] the pIC50 (HER2 enzyme) was at least 7.30 and the GI50 (BT-474 cancer cells) was at most 50 nM.
Work on `C=CC(=O)N1CCC(Nc2cc3c(Nc4cc(Cl)c(Oc5cccc(F)c5)cc4OC)ncnc3cc2OC)CC1` [Example 2, 1-(4-((4-((5-chloro-4-(3-fluorophenoxy)-2-methoxyphenyl)amino)-7-methoxyquinazolin-6-yl)amino)piperidin-1-yl)prop-2-en-1-one] yielded a pIC50 (HER2 enzyme) of at least 7.30, a GI50 (BT-474 cancer cells) of at most 50 nM and a GI50 (N-87 cancer cells) of at most 50 nM.
In the case of `CCOc1cc2ncc(C#N)c(Nc3ccc(OCc4ccccn4)c(Cl)c3)c2cc1NC(=O)/C=C/CN(C)C` [neratinib], the “objective response rate (ORR)” value (HER2 mutant cancers; HER2 mutant breast cancer patients) is given as 24%, the “objective response rate (ORR)” value (HER2 mutant cancers; HER2 mutant lung cancer patients) is given as 3.8% and the “objective response rate (ORR)” value (HER2 mutant cancers; other cancers having HER2 mutations) is given as 0%. For the same compound, the “response of patients with HER2 mutation” value (HER2 mutant cancers) was “partial responses”.
`COc1cc2ncnc(Nc3cc(F)c(Oc4ccn5ncnc5c4)cc3OC)c2cc1NC(=O)/C(F)=C/[C@H]1CCCN1C` [Example 50, (R,Z)—N-(4-((4-([1,2,4]triazolo[1,5-a]pyridin-7-yloxy)-5-fluoro-2-methoxyphenyl)amino)-7-methoxyquinazolin-6-yl)-2-fluoro-3-(1-methylpyrrolidin-2-yl)acrylamide] showed a pIC50 (HER2 enzyme) of at least 7.30, a GI50 (BT-474 cancer cells) of at most 50 nM and a GI50 (N-87 cancer cells) of at most 50 nM. The GI50 (Ba/F3 HER2 WT cells) was at most 50 nM, the GI50 (Ba/F3 HER2 L755S cells) was at most 50 nM and the GI50 (Ba/F3 HER2 L755P cells) was at most 50 nM. For the same compound, the GI50 (Ba/F3 HER2 T862A cells) was at most 50 nM and the GI50 [1] was at most 50 nM.
For `COc1cc2ncnc(Nc3cc(C)c(Oc4ccn5ncnc5c4)cc3OC)c2cc1NC(=O)/C(F)=C/[C@H]1CCCN1C` [Example 111, (R,Z)—N-(4-((4-([1,2,4]triazolo[1,5-a]pyridin-7-yloxy)-2-methoxy-5-methylphenyl)amino)-7-methoxyquinazolin-6-yl)-2-fluoro-3-(1-methylpyrrolidin-2-yl)acrylamide], the pIC50 (HER2 enzyme) was at least 7.30, the GI50 (BT-474 cancer cells) was at most 50 nM and the GI50 (N-87 cancer cells) was at most 50 nM.
`C=CC(=O)N1CCC(Oc2cc3c(Nc4cc(Cl)c(Oc5cccc(F)c5)cc4OC)ncnc3cc2OC)CC1` [Example 8, 1-(4-((4-((5-chloro-4-(3-fluorophenoxy)-2-methoxyphenyl)amino)-7-methoxyquinazolin-6-yl)oxy)piperidin-1-yl)prop-2-en-1-one] gave a pIC50 (HER2 enzyme) of at least 7.30, a GI50 (BT-474 cancer cells) of at most 50 nM and a GI50 (N-87 cancer cells) of at most 50 nM.
For `COc1cc2ncnc(Nc3cc(Cl)c(Oc4ccccn4)cc3OC)c2cc1NC(=O)/C=C/[C@H]1CCCN1C` [Example 33, (R,E)-N-(4-((5-chloro-2-methoxy-4-(pyridin-2-yloxy)phenyl)amino)-7-methoxyquinazolin-6-yl)-3-(1-methylpyrrolidin-2-yl)acrylamide], the pIC50 (HER2 enzyme) was at least 7.30, the GI50 (BT-474 cancer cells) was at most 50 nM and the GI50 (N-87 cancer cells) was at most 50 nM.
With `COc1cc2ncnc(Nc3cc(Cl)c(Oc4cccc(F)c4)cc3OC)c2cc1NC(=O)/C=C/CN(C)C` [Example 25, (E)-N-(4-((5-chloro-4-(3-fluorophenoxy)-2-methoxyphenyl)amino)-7-methoxyquinazolin-6-yl)-4-(dimethylamino)but-2-enamide] the pIC50 (HER2 enzyme) was at least 7.30, the GI50 (BT-474 cancer cells) was at most 50 nM and the GI50 (N-87 cancer cells) was at most 50 nM.
`CCOc1cc(Oc2ccn3ncnc3c2)c(C)cc1Nc1ncnc2cc(OC)c(NC(=O)/C(F)=C\[C@H]3CCCN3C)cc12` [Example 104, (R,E)-N-(4-((4-([1,2,4]triazolo[1,5-a]pyridin-7-yloxy)-2-ethoxy-5-methylphenyl)amino)-7-methoxyquinazolin-6-yl)-2-fluoro-3-(1-methylpyrrolidin-2-yl)acrylamide] gave a GI50 (BT-474 cancer cells) of at most 50 nM and a GI50 (N-87 cancer cells) of at most 50 nM.
`CCOc1cc2ncnc(Nc3cc(C)c(Oc4ccn5ncnc5c4)cc3OC)c2cc1NC(=O)/C(F)=C\[C@H]1CCCN1C` [Example 93, (R,E)-N-(4-((4-([1,2,4]triazolo[1,5-a]pyridin-7-yloxy)-2-methoxy-5-methylphenyl)amino)-7-ethoxyquinazolin-6-yl)-2-fluoro-3-(1-methylpyrrolidin-2-yl)acrylamide] showed a GI50 (BT-474 cancer cells) of at most 50 nM and a GI50 (N-87 cancer cells) of at most 50 nM.
Work on `C=CC(=O)N1CCC(Oc2cc3c(Nc4cc(Cl)c(Oc5ccn6ncnc6c5)cc4OC)ncnc3cc2OC)CC1` [Example 5, 1-(4-((4-((4-([1,2,4]triazolo[1,5-a]pyridin-7-yloxy)-5-chloro-2-methoxyphenyl)amino)-7-methoxyquinazolin-6-yl)oxy)piperidin-1-yl)prop-2-en-1-one] yielded a GI50 (BT-474 cancer cells) of at most 50 nM and a GI50 (N-87 cancer cells) of at most 50 nM.
In the case of `CCN1CCC[C@@H]1/C=C(/F)C(=O)Nc1cc2c(Nc3cc(C)c(Oc4ccn5ncnc5c4)cc3OC)ncnc2cc1OC` [Example 52, (R,E)-N-(4-((4-([1,2,4]triazolo[1,5-a]pyridin-7-yloxy)-2-methoxy-5-methylphenyl)amino)-7-methoxyquinazolin-6-yl)-3-(1-ethylpyrrolidin-2-yl)-2-fluoroacrylamide], the GI50 (BT-474 cancer cells) was at most 50 nM and the GI50 (N-87 cancer cells) was at most 50 nM.
In the case of `COc1cc(Oc2ccn3ncnc3c2)c(C)cc1Nc1ncnc2ccc(NC(=O)/C(F)=C/[C@H]3CCCN3C)cc12` [Example 92, (R,Z)—N-(4-((4-([1,2,4]triazolo[1,5-a]pyridin-7-yloxy)-2-methoxy-5-methylphenyl)amino)quinazolin-6-yl)-2-fluoro-3-(1-methylpyrrolidin-2-yl)acrylamide], the pIC50 (HER2 enzyme) was at least 7.30 and the GI50 (BT-474 cancer cells) was at most 50 nM.
`COc1cc2ncnc(Nc3cc(C)c(Oc4ccc5ncn(C)c5c4)cc3OC)c2cc1NC(=O)/C(F)=C\[C@H]1CCCN1C` [Example 55, (R,E)-2-fluoro-N-(7-methoxy-4-((2-methoxy-5-methyl-4-((1-methyl-1H-benzo[d]imidazol-6-yl)oxy)phenyl)amino)quinazolin-6-yl)-3-(1-methylpyrrolidin-2-yl)acrylamide] gave a GI50 (BT-474 cancer cells) of at most 50 nM and a GI50 (N-87 cancer cells) of at most 50 nM.
Work on `COc1cc2ncnc(Nc3cc(C)c(Oc4ccn5ncnc5c4)cc3OC)c2cc1NC(=O)/C(Cl)=C\[C@H]1CCCN1C` [Example 136, (R,E)-N-(4-((4-([1,2,4]triazolo[1,5-a]pyridin-7-yloxy)-2-methoxy-5-methylphenyl)amino)-7-methoxyquinazolin-6-yl)-2-chloro-3-(1-methylpyrrolidin-2-yl)acrylamide] yielded a GI50 (BT-474 cancer cells) of at most 50 nM and a GI50 (N-87 cancer cells) of at most 50 nM.
With `C=CC(=O)Nc1cc2c(Nc3cc(Cl)c(Oc4ccccn4)cc3OC)ncnc2cc1OC` [Example 24, N-(4-((5-chloro-2-methoxy-4-(pyridin-2-yloxy)phenyl)amino)-7-methoxyquinazolin-6-yl)acrylamide] the GI50 (BT-474 cancer cells) was at most 50 nM and the GI50 (N-87 cancer cells) was at most 50 nM.
In the case of `COc1cc2ncnc(Nc3ccc(F)c(Cl)c3)c2cc1NC(=O)/C=C/CN1CCCCC1` [dacomitinib], the “response of patients with HER2 mutation” value (HER2 mutant cancers) is given as “partial responses”.
